Values belong to the molecule of their own block, whether it stands above or below them.
What was measured:
[1] = target: T1, Muscarinic acetylcholine receptor M4 (Homo sapiens, UniProt P08173); assay: Positive allosteric modulation of human muscarinic M4 receptor expressed in CHO cells co-expressing Gqi5 assessed as increase in acetylcholine-induced calcium mobilization; format: functional, cell-based
T1 sequence (P08173 whole entry): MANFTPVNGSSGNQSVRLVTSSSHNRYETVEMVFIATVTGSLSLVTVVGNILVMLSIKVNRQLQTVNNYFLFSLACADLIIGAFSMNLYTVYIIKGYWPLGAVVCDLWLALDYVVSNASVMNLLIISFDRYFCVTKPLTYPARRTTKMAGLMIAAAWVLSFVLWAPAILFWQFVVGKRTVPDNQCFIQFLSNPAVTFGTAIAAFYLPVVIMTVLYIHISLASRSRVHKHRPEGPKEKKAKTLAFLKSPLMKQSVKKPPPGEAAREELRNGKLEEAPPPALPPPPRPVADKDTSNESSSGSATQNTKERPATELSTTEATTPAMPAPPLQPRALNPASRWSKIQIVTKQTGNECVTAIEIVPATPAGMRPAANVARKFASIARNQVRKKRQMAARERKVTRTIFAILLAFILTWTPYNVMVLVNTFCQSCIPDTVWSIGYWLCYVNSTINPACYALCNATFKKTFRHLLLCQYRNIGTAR

[2] = Unbound fraction in rat brain; format: ADME, tissue-based
[3] = Intrinsic clearance in rat microsomes; format: ADME, Microsome
[4] = Unbound brain-to-plasma concentration ratio in rat; format: ADME, cell-free; settings: read-out: K(p,uu,brain)
[5] = Unbound fraction in rat plasma; format: ADME, cell-free
[6] = Intrinsic clearance in human microsomes; format: ADME, Microsome
[7] = Brain to plasma permeability coefficient, Kp of the compound in rat; format: ADME, cell-free
[8] = target: T2, Muscarinic acetylcholine receptor M4 (Rattus norvegicus, UniProt P08485); assay: Positive allosteric modulation of rat muscarinic M4 receptor
T2 sequence (P08485 whole entry): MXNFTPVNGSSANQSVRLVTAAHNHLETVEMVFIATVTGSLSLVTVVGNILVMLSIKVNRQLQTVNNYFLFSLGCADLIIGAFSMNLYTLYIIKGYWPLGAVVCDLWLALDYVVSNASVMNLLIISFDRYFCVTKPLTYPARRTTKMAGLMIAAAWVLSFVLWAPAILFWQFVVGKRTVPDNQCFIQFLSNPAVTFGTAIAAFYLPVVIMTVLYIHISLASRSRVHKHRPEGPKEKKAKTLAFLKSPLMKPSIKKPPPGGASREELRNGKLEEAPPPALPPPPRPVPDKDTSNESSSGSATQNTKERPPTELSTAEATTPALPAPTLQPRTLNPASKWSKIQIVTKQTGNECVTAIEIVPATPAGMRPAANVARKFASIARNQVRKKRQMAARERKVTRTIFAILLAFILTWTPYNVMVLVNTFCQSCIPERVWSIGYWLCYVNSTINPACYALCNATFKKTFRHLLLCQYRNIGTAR

[9] = Unbound fraction in human plasma; format: ADME, cell-free
[10] = Hepatic clearance in rat; format: ADME; settings: in vivo
[11] = Hepatic clearance in human; format: ADME

EC50 ([1]; cho): Not Active
Compound: COc1cc(N2CC(NC(=O)c3cc4nn(C)c(C)c4cc3F)C2)c(Cl)cn1

EC50 ([1]; read-out: EC50): > 10000 nM
Compound: COc1cc(N2CC(NC(=O)c3ccc4nnc(C)n4c3)C2)c(Cl)cn1

EC50 ([1]; cho): Not Active
Compound: CCn1nc2ccc(C(=O)NC3CN(c4cc(Cl)ncc4Cl)C3)cc2c1C

EC50 ([1]; cho): Not Active
Compound: Cc1c2cc(F)c(C(=O)NC3CN(c4cc(Cl)ncc4Cl)C3)cc2nn1C

EC50 ([1]; cho): Not Active
Compound: COc1cc(N2CC(NC(=O)c3ccc4sc(C)nc4c3)C2)c(Cl)cn1

EC50 ([1]; cho): Not Active
Compound: COc1cc(N2CC(NC(=O)c3ccc4snc(C)c4c3)C2)c(Cl)cn1

EC50 ([1]; cho): Not Active
Compound: Cn1nc2ccc(C(=O)NC3CN(c4cc(Cl)ncc4Cl)C3)cc2c1C(F)(F)F

EC50 ([1]; read-out: EC50): > 10000 nM
Compound: Cc1nnc2ccc(C(=O)NC3CN(c4cc(Cl)ncc4Cl)C3)cn12

EC50 ([1]; cho): Not Active
Compound: Cc1nsc2ccc(C(=O)NC3CN(c4cc(Cl)ncc4Cl)C3)cc12

EC50 ([1]; cho): Not Active
Compound: COc1cc(N2CC(NC(=O)c3ccc4nn(C)c(C)c4n3)C2)c(Cl)cn1

fraction unbound [2]: 0.027
CLint scaled [3]: 130 mL/min/kg
Kp uu [4]: 0.21
fraction unbound [5]: 0.013
CLint scaled [6]: 39 mL/min/kg
Kp [7]: 0.1
EC50 [8]: 433 nM
fraction unbound [9]: 0.03
Compound: Cc1nc2ccc(C(=O)NC3CN(c4cc(Cl)ncc4Cl)C3)cn2c1C

fraction unbound [2]: 0.032
CLint scaled [3]: 33 mL/min/kg
Kp uu [4]: 0.97
fraction unbound [5]: 0.022
CLint scaled [6]: 28 mL/min/kg
Kp [7]: 0.67
EC50 [8]: 339 nM
fraction unbound [9]: 0.017
Compound: COc1cc(N2CC(NC(=O)c3cc4c(C)n(C)nc4cn3)C2)c(Cl)cn1

EC50 ([1]; cho): Not Active
Compound: Cn1nc2ccc(C(=O)NC3CN(c4cc(Cl)ncc4Cl)C3)cc2c1C1CC1

fraction unbound [2]: 0.032
Kp uu [4]: 0.04
fraction unbound [5]: 0.042
CLH [10]: 20 mL/min/kg
Kp [7]: 0.05
fraction unbound [9]: 0.043
CLH [11]: 13 mL/min/kg
Compound: Cc1c2cc(C(=O)NC3CN(c4cc(Cl)ncc4Cl)C3)ccc2nn1C

EC50 [8]: 378 nM
Compound: Cn1c(C(F)(F)F)nc2ccc(C(=O)NC3CN(c4cc(Cl)ncc4Cl)C3)cc21

fraction unbound [2]: 0.021
CLint scaled [3]: 85 mL/min/kg
Kp uu [4]: < 0.45
fraction unbound [5]: 0.011
CLint scaled [6]: 28 mL/min/kg
Kp [7]: < 0.24
fraction unbound [9]: 0.039
Compound: Cc1nn(C)c2cnc(C(=O)NC3CN(c4cc(Cl)ncc4Cl)C3)cc12

fraction unbound [2]: 0.034
CLint scaled [3]: 96 mL/min/kg
Kp uu [4]: 1.09
fraction unbound [5]: 0.009
CLint scaled [6]: 33 mL/min/kg
Kp [7]: 0.29
EC50 [8]: 233 nM
fraction unbound [9]: 0.04
Compound: Cc1nc2cnc(C(=O)NC3CN(c4cc(Cl)ncc4Cl)C3)cn2c1C

EC50 ([1]; cho): Not Active
Compound: Cc1noc2ccc(C(=O)NC3CN(c4cc(Cl)ncc4Cl)C3)cc12

EC50 ([1]; cho): Not Active
Compound: Cc1nc2ccc(C(=O)NC3CN(c4cc(Cl)ncc4Cl)C3)nn2c1C

EC50 ([1]; cho): Not Active
Compound: COc1cc(N2CC(NC(=O)c3ccc4c(c3)c(C)nn4C)C2)c(Cl)cn1

EC50 ([1]; cho): Not Active
Compound: Cc1c2nc(C(=O)NC3CN(c4cc(Cl)ncc4Cl)C3)ccc2nn1C

fraction unbound [2]: 0.053
Kp uu [4]: < 0.11
fraction unbound [5]: 0.024
CLH [10]: 8.7 mL/min/kg
Kp [7]: < 0.05
fraction unbound [9]: 0.132
CLH [11]: 21 mL/min/kg
Compound: Cn1nnc2ccc(C(=O)NC3CN(c4cc(Cl)ncc4Cl)C3)cc21

fraction unbound [2]: 0.03
CLint scaled [3]: 59 mL/min/kg
Kp uu [4]: 0.41
fraction unbound [5]: 0.022
CLint scaled [6]: 26 mL/min/kg
Kp [7]: 0.3
EC50 [8]: 331 nM
fraction unbound [9]: 0.014
Compound: Cc1c2cc(C(=O)NC3CN(c4cc(Cl)ncc4Cl)C3)ncc2nn1C

EC50 ([1]; cho): Not Active
Compound: COc1cc(N2CC(NC(=O)c3ccc4nc(C)c(C)n4n3)C2)c(Cl)cn1

EC50 ([1]; cho): Not Active
Compound: COc1cc(N2CC(NC(=O)c3ccc4onc(C)c4c3)C2)c(Cl)cn1

EC50 ([1]; cho): Not Active
Compound: Cn1nc2ccc(C(=O)NC3CN(c4cc(Cl)ncc4Cl)C3)cc2c1C(F)F

fraction unbound [2]: 0.021
CLint scaled [3]: 83 mL/min/kg
Kp uu [4]: < 1.33
fraction unbound [5]: 0.017
CLint scaled [6]: 25 mL/min/kg
Kp [7]: < 1.08
EC50 [8]: 295 nM
fraction unbound [9]: 0.045
Compound: COc1cc(N2CC(NC(=O)c3cn4c(C)c(C)nc4cn3)C2)c(Cl)cn1
